RP-LC retention time data for 59 compounds are collected here from the METLIN SMRT retention time set (Domingo-Almenara et al. 2019).

Each structure is given as a SMILES string.

This series is described as follows: gradient 5% acetonitrile 3 min, to 50% in 2 min, to 85% in 15 min, held 3 min, 100 µL/min. As to conditions: column: Zorbax Extend-C18 2.1 x 50 mm; eluents: water / acetonitrile, 0.1% formic acid. The essentials:
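Each retention time is based on an adduct peak selected computationally and verified by manual inspection. Measurements used HPLC–quadrupole time-of-flight mass spectrometry in positive and negative ionization mode on mixtures of ~100 pure standards. Chromatography ran on a Zorbax Extend-C18 column (2.1 × 50 mm, 1.8 μm) at 100 μL/min with water and acetonitrile, each containing 0.1% formic acid, and dead and dwell volumes of 40 μL and 900 μL.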
For the compound `COc1ccc(-c2cc3c4nnc(CCC(=O)N5CCC(C(N)=O)CC5)n4ccn3n2)cc1`, the RP-LC retention time is 613 s.

For `COc1cccc(-c2noc(COC(=O)C3=CN(C)S(=O)(=O)N=C3C)n2)c1`, the RP-LC retention time was found to be 926 s. In the case of `CCN(CC)S(=O)(=O)c1cc(-c2nnc(-c3ccccc3Cl)o2)ccc1C`, the RP-LC retention time was 1130 s. The result for `O=C1CCN(C(=O)c2cccs2)CCCCCCN1` reads 622 s; that for `COCCNC(=O)c1cc(-c2ccncc2)cn1Cc1ccc(C)cc1`, 640 s; that for `CC(C)CNC(=O)c1ccc(-c2nnc3ccc(NC(=O)C4CC4)cn23)cc1`, 708 s. The result for `O=C(Nc1ccc(F)cc1)c1cnc(-c2ccc(F)cc2)nc1-c1ccncc1` reads 898 s; that for `O=C(NC1CC1)c1snc(-c2ccccn2)c1NC(=O)C1CC1`, 720 s. In the case of `O=C(Nc1ccccc1)Nc1c(-c2ccc(F)cc2)nc2ccccn12`, the RP-LC retention time was found to be 662 s.

As for `Nc1cc(C2CCN(C(=O)c3ccccc3F)CC2)no1`, the RP-LC retention time was 648 s.

As for `Cc1c(Cl)cccc1S(=O)(=O)N1CCC2(CC1)OCCS2`, the RP-LC retention time amounted to 1050 s. The result for `CCOc1ccc(NC(=O)N2CCN(c3nc4ccccc4n3C)CC2)cc1` reads 649 s.

As for `Cn1c(=O)n(Cc2cccc(Cl)c2)c(=O)c2cnc(-c3ccncc3)nc21`, the RP-LC retention time was found to be 922 s. The result for `CCc1ccc2nc(Nc3ncc4c(n3)CC(c3ccc(F)cc3)CC4=O)nc(C)c2c1` (centres undefined) reads 835 s; that for `COc1ccc(Nc2nc(-c3nnn(-c4cc(Cl)c(OC)cc4OC)c3C)ns2)cc1`, 1020 s; that for `O=C(Nc1nc2c(s1)CCCC2C(=O)N1CCOCC1)c1ccc(Cl)cc1` (centres undefined), 759 s. The result for `Cc1ncsc1CN1CCCC(c2nc(C(C)C)no2)CCNC(=O)CC1` (centres undefined) reads 598 s; that for `Cc1ccc(-n2c(N3CCCC(C(=O)Nc4ccc(F)c(C)c4)C3)nc3ccsc3c2=O)cc1` (centres undefined), 1040 s; that for `COC(=O)c1ncn2c1C(=O)N(c1ccc(C)cc1)C(C)(C(=O)NCc1ccccc1)C2` (centres undefined), 692 s. The compound `Cn1nccc1C(=O)N1CC(c2nc(CCOCC3CCCC3)no2)C1` came in with an RP-LC retention time of 824 s. The result for `Cc1nn(-c2ccc3nnc(C)n3n2)c(C)c1CCC(=O)NCCc1c[nH]c2ccccc12` reads 726 s. The result for `CCCCNC(=O)CN1CCN(C(=O)c2sc3ncccc3c2-n2cccc2)CC1` reads 647 s; that for `Cc1cc(C)c(S(=O)(=O)N2CCc3c(c(-c4nnc(-c5ccc(F)cc5)o4)nn3C)C2)cc1C`, 1090 s. The result for `Cc1ccc(NC(=O)CSc2nc(=O)n(CCN(C)C)c3c2CCC3)cc1` reads 636 s; that for `COc1ccc2c(c1)CCc1sc(NC(=O)c3cccc(Br)c3)nc1-2`, 1240 s.

For `CCOC(=O)C1CCN(C(=O)c2sc(Nc3cccc(C)n3)nc2C)CC1`, the RP-LC retention time was determined as 774 s. The result for `Cc1ccoc1C(=O)N1CCCn2ccnc2C1c1cnn(C)c1` (centres undefined) reads 570 s. The result for `O=C(CC1CCCC1)N1CCCC1c1nc(C2CCOCC2)no1` (centres undefined) reads 780 s. The result for `Cc1ccc(-c2ncccc2CNS(=O)(=O)c2cccc(C#N)c2)cc1` reads 691 s; that for `COc1ccccc1C(=O)N1CC(Oc2cccc(-c3nc(-c4ccccc4)no3)c2)C1`, 1130 s. `Cc1ccnc(NS(=O)(=O)c2ccc(NC(=O)c3nc(-c4cnccn4)no3)cc2)n1`: the RP-LC retention time was found to be 608 s.

Take `CC1CC(=O)c2cn3ncnc3nc2C1` (centres undefined): the RP-LC retention time was 607 s. Regarding `Cc1ccc(N(C)S(=O)(=O)c2ccccc2-c2nc(-c3ccccc3)no2)cc1`, the RP-LC retention time was 1200 s. The result for `Cc1cnn(CC(=O)N2CC(F)(F)C[C@H]2c2nc(C3CC3)no2)c1` reads 703 s; that for `Cc1ccc(C)c(NC(=O)Cn2cnc3nc(N4CCC(C(=O)NC5CC5)CC4)sc3c2=O)c1`, 713 s; that for `Cc1nc(C)c(C(=O)NCC2Cn3cccc3C(=O)N2CC(C)C)s1` (centres undefined), 671 s. The result for `COC(=O)c1cc(OCC(=O)Nc2cccc(OC)c2)c2ccccc2n1` reads 779 s; that for `CCN1CCN(CC2CCN(S(=O)(=O)Cc3ccc(Cl)cc3)CC2)CC1`, 610 s; that for `CCCn1cc(CCNC(=O)Nc2ccc(Cl)cc2F)c2cccnc21`, 876 s. The result for `CN1[C@H]2C[C@H](OC(=O)[C@H](CO)c3ccccc3)C[C@@H]1[C@@H](O)C2` reads 596 s; that for `COc1ccccc1-c1nc(Cc2noc(-c3ccc(F)cc3)n2)c(C)o1`, 1040 s; that for `O=C(Cc1ccccc1Cl)NC1CCN(c2cc(-c3cccs3)[nH]n2)C1` (centres undefined), 738 s. As to `Cc1cc(-c2csc(S(=O)(=O)NCCCN3CCN(c4ccccc4F)CC3)c2)on1`, the RP-LC retention time came to 704 s.

For `O=C(c1ccc2cc[nH]c2c1)N1CCN(C(=O)c2nnn3c2COC(c2ccc(Cl)cc2)C3)CC1` (centres undefined), the RP-LC retention time stood at 918 s. The result for `O=C(c1ccc2c(c1)OCO2)N(c1ccc(Br)cc1)C1C=CS(=O)(=O)C1` (centres undefined) reads 779 s; that for `CC(C)CNC(=O)C1Cn2cccc2C(=O)N1` (centres undefined), 651 s; that for `CCc1nnc2c(=O)n(CC(=O)NCc3ccc(F)cc3)c3cccnc3n12`, 698 s. In turn, `CCOC(=O)c1c(S(=O)(=O)N2CCC(C(=O)Nc3ccc(F)cc3)CC2)c(C)n(CC)c1C` had an RP-LC retention time of 897 s. The result for `O=C(NCc1ccc2c(c1)OCO2)C1CCN(c2cnc(N3CCSCC3)nc2)CC1` reads 763 s. The result for `CC(C)CCNC(=O)N1CCN(c2ncccc2-c2nnc(C3CC3)o2)CC1` reads 765 s; that for `Cn1c(=O)sc2cc(S(=O)(=O)N3CCC(C(=O)N4CCCCC4)CC3)ccc21`, 764 s. The result for `COc1ccc(N2CCN(CCNC(=O)CCSc3ccccc3)CC2)cc1` reads 606 s. For the compound `O=C(CCC[C@@H]1[C@H]2CCCN3CCC[C@@H](CN1S(=O)(=O)c1cccs1)[C@@H]23)N1CCOCC1`, the RP-LC retention time stood at 588 s. In turn, `COc1cccc(NC(=O)c2cc(C)n3nccc3n2)c1` registered an RP-LC retention time of 874 s. The result for `CCc1ccc(S(=O)(=O)N2CCC(c3noc(-c4ccccc4C)n3)CC2)cc1` reads 1150 s. On to `Cc1c(CN2CCN(C(=O)[C@H](C)O)CC2)sc2c(N3CCOCC3)nc(-c3cnc(N)nc3)nc12`, for which the RP-LC retention time turned out to be 612 s. The result for `CCN1CCn2cc(S(=O)(=O)Nc3cccc(OC)c3)cc2C1=O` reads 700 s; that for `CSc1ccc(CNC(=O)CCc2c(-c3ccc(Br)cc3)nc3ccccn23)cc1`, 714 s. The result for `CCC(=O)N(CC(=O)N1CCc2sccc2C1COc1ccccc1OC)C(C)C` (centres undefined) reads 855 s.
